For the test, the system named is Phytophthora infestans. It is filed as in vivo. Conditions: individual active compound, potted tomato plants, protective, evaluated after 6 days.

Where two headings read alike, the source gives them in different places.

Turning to `CC1CCN(c2c(-c3c(F)cc(F)cc3F)c(Cl)nc3ncnn23)CC1` [I, 5-chloro-7-(4-methylpiperidin-1-yl)-6-(2,4,6-trifluorophenyl)[1,2,4]triazolo [1,5-a]pyrimidine], the “Efficacy in % of the untreated control” value (50 ppm in the spray liquor) worked out at 0%.
For the molecule `[Cl-].[Cu+2].[Cu+2].[OH-].[OH-].[OH-]` [II-1, copper oxychloride], the “Efficacy in % of the untreated control” value reads like this: (50 ppm in the spray liquor) 0%; (100 ppm in the spray liquor) 22%.
Turning to `O=C([O-])[O-].[Cu+2].[Cu+2].[OH-].[OH-]` [II-2, (basic) copper carbonate], the “Efficacy in % of the untreated control” value worked out at 0% (50 ppm in the spray liquor) and 11% (100 ppm in the spray liquor).
On the same counts, the results for `[Cu+2].[OH-].[OH-]` [II-3, copper hydroxide] are 11% and 22%.
As to `CC1CCN(c2c(-c3c(F)cccc3Cl)c(Cl)nc3ncnn23)CC1` [comparative compound A], where the note is “50 ppm in the spray liquor”, the “Efficacy in % of the untreated control” value was found to be 0%.
Regarding `C[C@H](Nc1c(-c2c(F)cc(F)cc2F)c(Cl)nc2ncnn12)C(F)(F)F` [comparative compound B], the “Efficacy in % of the untreated control” value (50 ppm in the spray liquor) stood at 0%.

For the origin of these results see US20070219238A1 (priority 2004, published 2007).
